Assay results: patent US8216607B2, “Combination of ceramide and gemcitabine for inducing cell death and uses thereof in treating cancer” (priority 2008, dated 2012)
Where two headings read alike, the source gives them in different places.

Legend:
[1] = tested on: L3.6 human pancreatic adeno-carcinoma
Experimental: Pancreatic adenocarcinoma (PA), the fifth most common cause of cancer death in the United States is commonly metastatic and unresectable and is poorly responsive to therapy. […] The in vitro cytotoxicity effect of gemcitabine+/−C6 ceramide versus L3.6 pancreatic cancer cell line were measured using MTT assay. In vivo experiments were performed using SCID/Beige/Taconic male mice, 22-25 g, 6-8 weeks old (Taconic Laboratory, Germantown, N.Y., USA). Mice were inoculated s.c. with 2×106L3.6 PA cells. Four days later mice developed primary tumors and chemotherapy was started. Mice were treated 3 times/week for 4 weeks with i.p. injections of gemcitabine (5.0-10.0-15.0 mg/kg) and C6 ceramide (10.0 mg/kg) or combinations of these drugs. Body weight (BW) and diameters of tumors (TD) were measured every week. Diameters of tumors were used to count the volumes of primary tumors: TV. We also studied percent survival and mean survival time (MST). In these experiments we used the new test: mean rate tumor development (MRTD) which reflects the speed of tumor development and was measured by the formula: MTV/MST.
In vivo experiments utilized SCID/Beige/Taconic male mice inoculated S.C. with 2×106 L3.6 pancreatic cells which were treated 4 days post tumor implant with thrice weekly (3×/wk) intraperitoneal (IP) injections of paclitaxel (P) 3.0 mg/kg, oxaliplatin (OX) 2.5 mg/kg, cisplatin (CP) 2.5 mg/kg, gemcitabine (Gem) 15 mg/kg with or without ceramide 10 mg/kg. Chemotherapy dose levels were based on standardized clinical dosing as modified from in vitro data. […] Maximum tumor volume, tumor weight, body weight and survival were recorded. […] Separate histopathology studies recorded short term effects on tumor necrosis, mitotic index and caspase index.

[2] = tested on: L3.6 pancreatic cancer cell line
[3] = dose column 10 mg/kg (gemcitabine or ceramide alone; ceramide 10 mg/kg in combination)

Nc1ccn([C@@H]2O[C@H](CO)[C@@H](O)C2(F)F)c(=O)n1 [Gemcitabine]
% Survival @ 3 Weeks ([1]; 3 weeks): 40% | % Survival @ 6 Weeks ([1]; 6 weeks): 0% | Tumor Size (cc) ([1]; dose column 5 mg/kg): 0.412 cc | Mean Survival Time ([1]; dose column 5 mg/kg (gemcitabine; ceramide 10 mg/kg in combination)): 19.6 ± 3.6 days | Tumor Size (cc) ([1]; dose column 10 mg/kg): 0.376 cc | Mean Survival Time [1, 3]: 27.8 ± 10.2 days | Tumor Size (cc) ([1]; dose column 15 mg/kg): 0.439 cc | Mean Survival Time ([1]; dose column 15 mg/kg (gemcitabine; ceramide 10 mg/kg in combination)): 23.2 ± 5.9 days | Mean Final Tumor Volume ([1]; i.p. 3x/wk from day 4, paclitaxel 3.0, oxaliplatin 2.5, cisplatin 2.5, gemcitabine 15, ceramide 10 mg/kg, observed 6 weeks, in cm³): 1.10 +/−^ | Mean Survival Time ([1]; i.p. 3x/wk, paclitaxel 3.0, oxaliplatin 2.5, cisplatin 2.5, gemcitabine 15, ceramide 10 mg/kg): 22.8 ± 4.5 days | Mean Body Weight (g) (Time of Death or Sacrifice) ([1]; time of death or sacrifice): 15.6 g

CCCCCCCCCCCCC/C=C/[C@@H](O)[C@H](CO)NC(=O)CCCCC [Ceramide, N-hexanoyl-D-sphingosine]
effect on cytotoxicity induced by low dose cisplatin and oxaliplatin [2]: parallel effects | anti-tumor regression and survival induced by Oxaliplatin and Gemcitabine ([1]; combination therapy): significantly enhanced | Tumor Size (cc) ([1]; dose column 10 mg/kg): 0.253 cc | Mean Survival Time [1, 3]: 27.8 ± 10.2 days | anti tumor effects of co-administered drugs ([1]; with Paclitaxel, Doxorubicin, Cisplatin, Oxaliplatin, Gemcitabine): augmented the anti tumor effects
